Experiments:
[1] = Antioxidant activity in Homo sapiens (human) PMNC assessed as inhibition of fMLP-induced ROS generation at 100 uM incubated for 30 min prior to fMLP-induction measured every 4 secs for 100 secs by luminol-enhanced chemiluminescence analysis; assay type: functional
[2] = target: Xanthine dehydrogenase/oxidase (Homo sapiens, UniProt P47989); assay: Inhibition of xanthine oxidase (unknown origin) using pterine as substrate assessed as rate of isoxantopterine formation by fluorimetric analysis (reference value: 3.25 +/- 0.25 umol/min)
[3] = Antioxidant activity assessed as inhibition of hypoxanthine/xanthine oxidase-mediated ROS generation incubated for 5 min prior to xanthine oxidase addition measured every 4 secs for 100 secs by luminol-enhanced chemiluminescence analysis; assay type: functional
[4] = (§1) Antioxidant activity in Homo sapiens (human) PMNC assessed as inhibition of fMLP-induced ROS generation incubated for 30 min prior to fMLP-induction measured every 4 secs for 100 secs by luminol-enhanced chemiluminescence analysis; assay type: functional
Homo sapiens = species on record: Homo sapiens; assay: as §1; assay type: functional

Xanthine dehydrogenase/oxidase, sequence (P47989 whole entry): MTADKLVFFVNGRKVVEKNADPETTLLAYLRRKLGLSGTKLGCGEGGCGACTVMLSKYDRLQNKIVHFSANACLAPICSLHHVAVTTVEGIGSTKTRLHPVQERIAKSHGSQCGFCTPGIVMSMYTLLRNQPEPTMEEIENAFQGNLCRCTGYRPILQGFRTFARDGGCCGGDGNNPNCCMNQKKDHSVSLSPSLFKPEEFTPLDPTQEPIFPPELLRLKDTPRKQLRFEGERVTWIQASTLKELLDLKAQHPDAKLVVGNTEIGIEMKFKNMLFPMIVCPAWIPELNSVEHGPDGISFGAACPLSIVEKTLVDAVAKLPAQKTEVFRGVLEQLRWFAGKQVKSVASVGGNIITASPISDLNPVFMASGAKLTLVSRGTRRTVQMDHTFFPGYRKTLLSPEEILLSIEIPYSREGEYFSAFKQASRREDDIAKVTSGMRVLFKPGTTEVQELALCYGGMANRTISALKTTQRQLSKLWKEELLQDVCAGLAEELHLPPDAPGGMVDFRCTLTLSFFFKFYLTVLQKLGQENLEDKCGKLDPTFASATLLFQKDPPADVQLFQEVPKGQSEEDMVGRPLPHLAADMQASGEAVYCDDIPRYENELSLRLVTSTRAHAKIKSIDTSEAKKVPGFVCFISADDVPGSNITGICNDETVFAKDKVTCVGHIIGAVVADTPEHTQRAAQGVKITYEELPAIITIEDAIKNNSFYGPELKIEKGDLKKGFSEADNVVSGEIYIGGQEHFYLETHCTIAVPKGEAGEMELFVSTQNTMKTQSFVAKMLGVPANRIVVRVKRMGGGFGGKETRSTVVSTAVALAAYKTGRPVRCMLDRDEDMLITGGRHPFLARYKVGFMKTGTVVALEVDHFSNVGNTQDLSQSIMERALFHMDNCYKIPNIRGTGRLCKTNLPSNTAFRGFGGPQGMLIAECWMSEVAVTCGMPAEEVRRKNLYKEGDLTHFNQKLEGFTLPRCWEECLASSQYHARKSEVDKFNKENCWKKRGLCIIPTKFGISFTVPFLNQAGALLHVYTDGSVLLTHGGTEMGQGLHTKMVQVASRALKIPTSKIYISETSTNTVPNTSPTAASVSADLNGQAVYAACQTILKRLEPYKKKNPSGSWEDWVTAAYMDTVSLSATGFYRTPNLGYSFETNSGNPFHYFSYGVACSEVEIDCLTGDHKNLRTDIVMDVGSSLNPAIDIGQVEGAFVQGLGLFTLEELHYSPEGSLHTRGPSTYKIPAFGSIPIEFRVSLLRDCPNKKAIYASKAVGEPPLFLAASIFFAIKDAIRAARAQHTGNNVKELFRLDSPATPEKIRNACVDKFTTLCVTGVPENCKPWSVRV

| Structure (SMILES) | Activity [2] | IC50 [3] | IC50 [4] | inhibition at 100 µM [1] | inhibition [3] | inhibition (Homo sapiens) |
| --- | --- | --- | --- | --- | --- | --- |
| COc1cc2ccc3c(CC[N+](C)(C)C)c(Br)c(OC)c(OC)c3c2cc1OC.[I-] | 3.45 µmol/min | 3010 nM | – | 62% | Dose-dependent effect | – |
| COc1cc2c(ccc3c(CC[N+](C)(C)C)c(Br)c(O)c(OC)c32)cc1O.[I-] | 3.6 µmol/min | 2110 nM | 740 nM | – | Dose-dependent effect | Dose-dependent effect |
| CNCCc1c(Br)c(O)c(OC)c2c1ccc1cc(O)c(OC)cc12 [2-BROMOSECOBOLDINE] | 2.82 µmol/min | 160 nM | 640 nM | – | Dose-dependent effect | Dose-dependent effect |
| COc1cc2c(cc1O)C[C@H]1c3c(c(Br)c(O)c(OC)c3-2)CCN1C [3-BROMOBOLDINE] | 4.09 µmol/min | 550 nM | 810 nM | – | Dose-dependent effect | Dose-dependent effect |

Now from value to compound, other results behind:

| Activity [2] | IC50 [3] | IC50 [4] | Structure (SMILES) | inhibition at 100 µM [1] | inhibition [3] | inhibition (Homo sapiens) |
| --- | --- | --- | --- | --- | --- | --- |
| 3.98 µmol/min | 190 nM | 780 nM | COc1cc2c(ccc3c(CCN(C)C)c(Br)c(O)c(OC)c32)cc1O [2-BROMO-N-METHYLSECOBOLDINE] | – | Dose-dependent effect | Dose-dependent effect |
| 3.77 µmol/min | 2000 nM | 1270 nM | COc1cc2c(cc1O)C[C@H]1c3c(c(Br)c(O)c(OC)c3-2)CC[N+]1(C)C.[I-] [3-BROMO-N-METHYLBOLDINE IODIDE] | – | Dose-dependent effect | Dose-dependent effect |
| – | – | 168000 nM | O=C1O[C@H]([C@@H](O)CO)C(O)=C1O [ASCORBIC ACID] | – | – | – |

— ChEMBL document CHEMBL3045395, “Synthesis and reactive oxygen species scavenging activity of halogenated alkaloids from boldine” (Med Chem Res, 2012)
